{"source": "patent US10842806B2", "about": "“Methods for treating ocular inflammatory disorders” (Massachusetts Eye and Ear Infirmary, priority 2011, dated 2020)", "key": {"AMPKα1 KO BMDCs": {"test_system": "AMPKα1 KO BMDCs", "test": "LPS-stimulated AMPKα1 KO BMDC maturation and cytokine production", "format": "cell-based, mice", "details": "after LPS stimulation with AICAR", "method": "BMDCs were generated as previously described (Wang et al. (2005) IMMUNOL. LETT. 98:123-130). Briefly, bone marrow was flushed from the femurs and tibias of naive mice (6 to 8-week-old WT or AMPKα1 KO mice). The red blood cells were lysed using Red Blood Cell Lysing Buffer (Sigma). Approximately 2×10^6 cells were cultured in complete medium (RPMI 1640 medium containing 10% FBS, […], 10 mM HEPES [pH 7.4], 2 mM glutamine, 100 U/ml penicillin, and […]) including 10 ng/ml GM-CSF (Pepro Tech, London, England). Fresh media was added to the cells on day 4 of culture, and nonadherent cells and loosely adherent cells were collected as immature DCs on day 7. Immature DCs were stimulated with 100 ng/ml LPS (Salmonella typhimurium; Sigma) for 24 hours to obtain mature DCs. In some experiments, AICAR was added to the culture. […] After LPS stimulation for 24 hours, supernatant of the BMDC culture was collected and IL-6, TNF-α and IL12/23 p40 concentrations were measured (R&D system). […] In these experiments, AMPKα1 KO mice were provided as previously described (Jorgensen et al. (2004) J. BIOL. CHEM. 279:1070-1079). Since BMDCs expressed only AMPKα1, BMDCs were extracted from AMPK KO mouse and used to determine the role of AMPK in the anti-inflammatory effects of AICAR. As shown in FIGS. 14A and 14B, AICAR suppressed the maturation of AMPKα1 KO BMDCs."}, "TNF-α": {"test_system": "TNF-α", "test": "TNF-α ELISA in aqueous humor, retina and serum of EIU rats", "format": "in vivo, Lewis rats", "details": "LPS + AICAR", "method": "Male Lewis rats ranging from 6-8 weeks old (Charles River, Wilmington, Mass.) were used for these studies. To study the effects of AICAR pretreatment, AICAR and PBS (for placebo treatment) were delivered via intraperitoneal injection of AICAR (50 mg/kg or 100 mg/kg body weight; Sigma) diluted in 150 μl PBS or equal volume of PBS at 6 hours before and at the same time as LPS injection. Four experimental groups of rats were compared: (1) Normal: no treatment (2) AICAR: normal rats treated with AICAR 6 hours before examination; (3) LPS: EIU rats treated with PBS; (4) LPS+AICAR: EIU rats treated with AICAR. Two additional groups of rats were used to study the effects of AICAR (50 mg/kg) given either at the same time as LPS injection or at 6 hours after LPS injection. Under deep anesthesia, experimental rats were sacrificed and the retinas were carefully removed 24 hours after LPS injection, placed into 200 μl of lysis buffer and then sonicated. The lysate was centrifuged at 13,000 rpm for 10 minutes at 4° C. and supernatant was isolated. […] Cytokine and chemokine levels in the serum, aqueous humor, and retina were assessed using the rat CCL2/MCP-1 kit (Invitrogen, Camarillo, Calif.), the rat TNF-α kit (R&D system, Minneapolis, Minn.) and the rat ICAM-1 kit (R&D systems) by ELISA."}, "[1]": {"test_system": "experimental autoimmune uveitis (EAU)", "test": "Clinical scoring of EAU by funduscopic examination", "format": "in vivo, C57BL/6 (WT) mice"}, "lymph node (LN) cells": {"test_system": "lymph node (LN) cells", "test": "Proliferation, cytokine production and transcription factor expression of LN cells from AICAR-treated EAU mice", "format": "in vivo, C57BL/6 (WT) mice", "method": "To extract LN cells, draining lymph nodes from 6 to 8 mice were isolated at sixteen days after immunization and pooled. Single cell suspensions were made using a cell strainer (BD, Franklin Lakes, N.J.). CD4 T cell-enriched fractions were prepared using CD4 Microbeads (Miltenyi Biotec GmbH, Bergisch Gladbach, Germany), and purity of the suspensions was determined by staining with anti-CD4 antibody (GK1.5, Biolegend, San Diego, Calif.) and flow cytometry. All experimental samples of CD4 T cell-enriched fractions were at least 95% CD4-positive. To measure cell proliferation, LN cells were resuspended at 5×10^5 cells per 200 μl of medium in 96-well flat-bottom plates. Cells were incubated for 72 hours and proliferation during the last 12 hours was measured by using a bromodeoxyuridine (BrdU) cell proliferation assay kit (Millipore, Billerica, Mass.). Supernatant in the culture medium was collected at 48 hours and cytokine production in the supernatant was measured by ELISA using the Quantikine mouse IFN-γ, IL-4, IL-10 and IL-17 kits (R&D system, Minneapolis, Minn.). To measure the expression of T-bet and RORγt, real-time PCR was carried out as described above using the following TaqMan gene expression assays: T-bet (Mm00450960_m1) and RORγt (Mm01261022_m1). Quantitative expression data were acquired and analyzed with a Step One Plus real-time PCR system (Applied Biosystems). In order to assess the in vivo effect of AICAR on the development of IRBP-reactive T cells, LN cells from control and AICAR-treated mice were stimulated with either IRBP or a non-specific T cell stimulator, anti-CD3. Proliferative response was measured with BrdU incorporation. […] In comparison, when the cells were treated with anti-CD3, there was no difference in T cell proliferation between the AICAR treated and control mice (FIG. 8B)."}, "[2]": {"details": "AICAR-treated EAU mice, real-time PCR"}, "[3]": {"details": "LN cells from AICAR-treated EAU mice, ELISA"}}, "data": [{"smiles": "NC(=O)c1ncn([C@@H]2O[C@H](CO)[C@@H](O)[C@H]2O)c1N", "note": "[AICAR, 5-aminoimidazole-4-carboxamide-1-β-d-ribofuranoside]", "values": [{"measurement": "CD40 expression in AMPKα1 KO BMDCs", "setting": "AMPKα1 KO BMDCs", "result": "significantly suppressed"}, {"measurement": "CD80 expression in AMPKα1 KO BMDCs", "setting": "AMPKα1 KO BMDCs", "result": "significantly suppressed"}, {"measurement": "CD86 expression in AMPKα1 KO BMDCs", "setting": "AMPKα1 KO BMDCs", "result": "significantly suppressed"}, {"measurement": "I-A^b expression in AMPKα1 KO BMDCs", "setting": "AMPKα1 KO BMDCs", "result": "significantly suppressed"}, {"measurement": "IL12/23 p40 production in AMPKα1 KO BMDCs", "setting": "AMPKα1 KO BMDCs", "result": "suppressed"}, {"measurement": "IL-6 production in AMPKα1 KO BMDCs", "setting": "AMPKα1 KO BMDCs", "result": "suppressed"}, {"measurement": "TNF-α production in AMPKα1 KO BMDCs", "setting": "AMPKα1 KO BMDCs", "result": "suppressed"}, {"measurement": "TNF-α in serum", "setting": "TNF-α; 3 hours after LPS, n=11, LPS 147.2 ± 337.1, p 0.475", "result": "57.8 ± 143.1", "unit": "pg/mL"}, {"measurement": "TNF-α in aqueous humor", "setting": "TNF-α; 24 h after LPS, n=12, LPS 277.8 ± 123.9", "result": "92.5 ± 140.5", "unit": "pg/mL"}, {"measurement": "EAU mean clinical score", "setting": "[1]; AICAR 200 mg/kg i.p. daily day 0 to 21, day 21, scale 0-4, n=15, control 2.6±0.70", "result": "1.32±0.95"}, {"measurement": "Clinical inflammation on fundus examination", "setting": "[1]; AICAR 100 or 200 mg/kg daily, dose-dependent manner", "result": "suppressed"}, {"measurement": "EAU mean clinical score, effector phase treatment", "setting": "[1]; AICAR administered from day 8 to 21 after immunization, n=8, controls 2.44±0.56", "result": "1.50±0.86"}, {"measurement": "RORγt mRNA expression in CD4 T cells", "setting": "lymph node (LN) cells; [2]", "result": "suppressed"}, {"measurement": "T-bet mRNA expression in CD4 T cells", "setting": "lymph node (LN) cells; [2]", "result": "suppressed"}, {"measurement": "T cell proliferation (BrdU), anti-CD3 stimulation", "setting": "lymph node (LN) cells; LN cells from AICAR treated vs control mice", "result": "no difference"}, {"measurement": "IFN-γ production by LN cells", "setting": "lymph node (LN) cells; [3]", "result": "significantly suppressed"}, {"measurement": "IL-10 production by LN cells", "setting": "lymph node (LN) cells; [3]", "result": "significantly suppressed"}, {"measurement": "IL-17 production by LN cells", "setting": "lymph node (LN) cells; [3]", "result": "significantly suppressed"}, {"measurement": "Antigen-specific T cell proliferation (BrdU), IRBP stimulation", "setting": "lymph node (LN) cells; LN cells from AICAR-treated vs untreated EAU mice, dose-dependent manner", "result": "suppressed"}]}]}
